Several values for one entry are separate records, joined by “and”; a condition that tells them apart may be missing. Equal values may be shown once.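 In this assay, cells in 96-well plates receive the compound at five concentrations for 48 hours. Endpoints are linearly interpolated between the surrounding concentrations. GI50: concentration for 50% inhibition of growth. TGI marks complete inhibition of growth.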

Experiment in all cases: growth of human tumour cells (NCI), 48 h
Assay [1] has as its system UO-31 renal.
For assay [2], the system named is HCT-15 colon.
The test system of assay [3] is U251 CNS.
Assay [4] concerns OVCAR-5 ovarian.
Assay [5] has as its system UACC-62 melanoma.
Assay [6] concerns ACHN renal.
Assay [7] has as its system K-562 leukemia.
The test system of assay [8] is MALME-3M melanoma.
For assay [9], the system named is M14 melanoma.

In the case of `NC(=S)N/N=C/C(O[C@@H](/C=N/NC(N)=S)CO)n1cnc2c(N)ncnc21` (some centres undefined), the TGI in [1] is over 100 µM; in assay [2], over 62 µM; in [3], over 89.4 µM; in assay [4], over 100 µM; in [5] it was over 100 µM; in assay [6], over 100 µM. In addition, the TGI in assay [7], in assay [8] and in [9] was over 100 µM throughout.
`CCN(CC)CCN1C(=O)c2c(c3c4cccc(Cl)c4n(C4OC(CO)C(OC)C(O)C4O)c3c3[nH]c4c(Cl)cccc4c23)C1=O` (centres undefined): the GI50 in assay [3] is under 0.0001 µM; in [5] it was 0.000111 µM and < 0.0264 µM and < 0.01 µM; in [6] it was under 0.0001 µM; in assay [9], 0.000565 µM and < 0.0368 µM and < 0.0145 µM.
Turning to `COc1ccc(C(=O)C(c2ccc(OC)cc2)C2(O)C(=O)Nc3c(Cl)cc(Cl)cc32)cc1` (centres undefined), the TGI in assay [1] was 62.2 µM; in assay [2], 49.8 µM; in assay [3] it was over 100 µM; in assay [4] it was 40.9 µM; in assay [6] it was 61.2 µM; in assay [7] it was 41.5 µM. Further, the TGI turned out to be 29.8 µM in assay [8] and 33.6 µM in [9].
For the molecule `O=C(CC(=O)N1N=C(n2ccc3ccccc32)CC1c1ccccc1)Nc1ccccc1Cl` (centres undefined), the TGI in assay [1], in assay [2], in assay [3], in [5], in assay [6] and in assay [7] was over 100 µM each time. For the same molecule, the TGI in [8] and in [9] was over 100 µM in each case.
As for `C=C1C2CCCC1C1(S(C)(=O)=O)CCCCC21O` (centres undefined), the TGI in assay [1], in [2], in assay [3], in [4], in assay [5] and in [6] was over 100 µM each time. For the same molecule, the TGI in assay [7], in assay [8] and in [9] was over 100 µM throughout.
In the case of `CCP(C)(=O)CC`, the TGI in [1], in assay [2], in [3], in [4], in assay [5] and in assay [6] was over 100 µM each time. Moreover, the TGI in assay [7], in assay [8] and in [9] was over 100 µM throughout.
Take `[CH3][Ge]([CH3])([CH2]CC#N)[S]c1ccccc1`: the GI50 in assay [1] was 10.5 µM; in [2] it was 15 µM; in assay [3] it was 9.85 µM; in assay [4] it was 17.8 µM; in assay [5], 13.5 µM; in assay [6], 18 µM. In addition, the GI50 in [7] was 8 µM; in assay [8] it was 73.7 µM; in [9] it was 18.8 µM. Besides, the TGI in assay [1] stood at 22.3 µM; in [2], 28.2 µM; in assay [3] it was 22.6 µM; in assay [4], 39.5 µM; in assay [5] it was 29.8 µM; in [6], 33.1 µM. For the same molecule, the TGI is over 100 µM in assay [7], over 100 µM in [8] and 43 µM in [9].
Take `COc1c(CC(C)=O)c2ccccc2n1C(C)=O`: the TGI in assay [1], in assay [2], in assay [3], in assay [5], in assay [6] and in assay [7] was over 100 µM each time. For the same molecule, the TGI in [9] was over 100 µM.
In the case of `c1ccc(-c2sc(-c3ccccc3)c3c2C(c2ccccc2)c2c(-c4ccccc4)sc(-c4ccccc4)c2C3c2ccccc2)cc1` (centres undefined), the TGI in [1], in assay [2], in [3], in assay [4], in assay [5] and in [6] was over 100 µM in each case. Besides, the TGI in assay [7], in [8] and in assay [9] was over 100 µM each time.
In the case of `CN1CCN(CCCCCOc2cc(O)c3c(=O)cc(-c4ccccc4)oc3c2)CC1`, the GI50 was 1.71 µM in [1]; 1.79 µM in assay [2]; 1.98 µM in assay [3]; 4 µM in [4]; 1.86 µM in assay [5]; 1.91 µM in assay [6]. Besides, the GI50 is 1.8 µM in assay [7], 0.898 µM in assay [8] and 1.71 µM in assay [9]. Also, the TGI was determined as 3.55 µM in assay [1]; 4.02 µM in [2]; 4.86 µM in assay [3]; 22.2 µM in [4]; 3.26 µM in assay [5]; 3.87 µM in [6]. Moreover, the TGI was found to be 3.68 µM in assay [7], 4.31 µM in [8] and 3.09 µM in assay [9].
Turning to `O=C1CCC2(c3ccccc3)OCC([C@@H](O)c3ccccc3)N12` (some centres undefined), the TGI in assay [2], in assay [3], in [4], in [5], in assay [6] and in [7] was over 100 µM throughout. This molecule also yielded a TGI in assay [8] of over 100 µM.
In the case of `O=C(Nc1ccc(Nc2ccc(NC(=O)c3ccccc3)c3c2C(=O)c2ccccc2C3=O)c2c1C(=O)c1ccccc1C2=O)c1ccccc1`, the TGI in assay [1], in assay [2], in assay [3], in assay [5], in assay [6] and in [7] was over 100 µM each time. The TGI in assay [8] and in [9] was over 100 µM in each case.
On to `Oc1ccc(I)c2cccnc12`, for which the TGI in [1] was 32.5 µM; in assay [2] it was over 100 µM; in assay [3] it was over 100 µM; in [4], over 100 µM; in assay [6], over 100 µM; in assay [7], 23.8 µM. The values for the TGI in [8] and in assay [9] were 61.8 µM and 25.4 µM, respectively.
Consider `O=c1[nH]c(-c2ccccc2)nc2cc([N+](=O)[O-])c(/C(Cl)=C/c3ccccc3)cc12`, for which the TGI was over 100 µM in assay [1]; over 100 µM in assay [2]; over 100 µM in assay [3]; over 100 µM in assay [4]; 42.6 µM in assay [5]; over 100 µM in [6]. In addition, the TGI in assay [7] and in assay [8] was over 100 µM throughout.
As to `Cc1c(C(=O)/C=C/c2ccc([N+](=O)[O-])cc2)[n+](=O)c2ccccc2n1[O-]`, the TGI in assay [1], in assay [3], in assay [4], in [5], in assay [6] and in assay [7] was over 100 µM each time. The TGI in assay [8] and in [9] was over 100 µM each time.
In the case of `NC(N)=NCCCC(Nc1c2ccccc2nc2ccccc12)C(=O)O` (centres undefined), the TGI in [2], in assay [3], in [4], in [6], in assay [7] and in assay [8] was over 100 µM in each case. Also, the TGI in assay [9] is over 100 µM.
In the case of `CC(=O)[CH-]C(=O)c1ccccc1.CC(=O)[CH-]C(=O)c1ccccc1.CC(=O)[CH-]C(=O)c1ccccc1.[Cl-].[Hf+4]`, the GI50 in assay [2] is 23.9 µM; in assay [3], 22 µM; in assay [4], 22.8 µM; in [5], 29.7 µM; in assay [6] it was 31.3 µM; in assay [7], 37.6 µM. In addition, the GI50 in assay [8] was 14.8 µM; in assay [9], 18.6 µM. In addition, the TGI in assay [2] is over 100 µM; in [3], over 100 µM; in [4], 71.8 µM; in assay [5], over 100 µM; in [6] it was over 100 µM; in assay [7], over 100 µM. Besides, the TGI stood at 39.8 µM in assay [8] and 60.8 µM in assay [9].
Take `COC12OCCN(C)C1=CC(=O)C1N=NCC12` (centres undefined): the TGI in assay [1], in [2], in assay [3], in [5], in [7] and in assay [9] was over 100 µM in each case.
Turning to `CCOC(=O)C1(C)C2=CC=C(O2)C(C)(C)C2=CC=C(O2)C(C)(C)C2=CC=C(O2)C(C)(C)C2=CC=C1O2`, the TGI in [2], in [3], in assay [4], in assay [6], in assay [7] and in assay [8] was over 100 µM in each case.
For the molecule `[pH]1p2[pH]p3p1p3[pH]2.c1cc[c]([Ge]([c]2ccccc2)[c]2ccccc2)cc1.c1cc[c]([Ge]([c]2ccccc2)[c]2ccccc2)cc1.c1cc[c]([Ge]([c]2ccccc2)[c]2ccccc2)cc1`, the GI50 in assay [1] was 16.3 µM; in assay [3] it was 7.54 µM; in assay [4], 18.2 µM; in [5] it was 14.3 µM; in assay [6], 16.9 µM; in assay [7] it was 16.4 µM. The GI50 in [8] was 14.3 µM; in [9], 13.6 µM. Further, the TGI is 29.8 µM in assay [1]; 19.7 µM in [3]; 34.1 µM in [4]; 31 µM in assay [5]; 36.2 µM in assay [6]; 43.5 µM in [7]. In addition, the TGI in [8] came out at 28.1 µM; in assay [9], 27.3 µM.

For the origin of these results see PubChem BioAssay (NCI).
